What all share (type): cell-based
The subject of assay [1] is RKOp21 (human colon adenocarcinoma) cells. Briefly: XTT cytotoxicity assay, RKOp21 cells. The following applies: read-out: RKOp21 [IC50 (μM)]. As to the method:
(§1) Cytotoxicity of selected compounds of the invention against different mammalian cell lines was assessed as follows.
(§2) Human tumor cell lines KB/HeLa (ATCC CCL17, human cervix carcinoma), PC3 (ATCC CRL1435, human prostate carcinoma) and RKOp21 (human colon adenocarcinoma; Schmidt et al., Oncogene 2000, 19: 2423-2429) cells were used in an automated XTT screening assay for the assessment of cytotoxicity.
(§3) The XTT assay quantifies cellular metabolic activity which correlates with cell viability and cell number. Test compounds (selected compounds of the invention and known substances as controls) are dissolved in culture medium at 600 μM and added to the tumor cells in 10 different concentrations in a semi-logarithmic fashion starting from 100 μM as highest concentration.
(§4) In a second set of experiments employing PC3, RKOp21 and SKOV-3 (ATCC HTB-77, human ovary adenocarcinoma) cells, test and reference compounds were dissolved in 70% Ethanol/30% H2O in a stock concentration of 10 mM and diluted in cell culture medium to yield either 31.6 μM (PC3 and RKOp21) or 100 μM (SKOV-3) final concentration.
(§5) 48 h later cellular metabolic activity of cells treated with test compounds is quantified by measurement of the absorbance at 490 nm (conversion of XTT dye) in comparison to untreated control cells (100% viability).
(§6) KB/HeLa and PC3 cells were cultivated in RPMI 1640 medium (Gibco, Cat. No. 42401-018) supplemented with 10% heat inactivated fetal calf serum (FCS, Biochrom AG, Cat. No. S0115), 2 mM L-glutamine (Gibco, Cat. No. 25030-24) and 2% Penicillin-Streptomycin (PenStrep, Gibco, Cat. No. 15140-122). RKOp21 cells were grown in DMEM+GlutaMAXTM-I medium (Gibco, Cat. No. 61965-026) supplemented with 10% heat inactivated fetal calf serum (FCS, Biochrom AG, Cat. No. S0115), 2 mM L-glutamine (Gibco, Cat. No. 25030-24), 2% Penicillin-Streptomycin (PenStrep, Gibco, Cat. No. 15140-122) and 1% 1M HEPES (Gibco, Cat. No. 15630-056). All cells were cultured at 37° C. in 5% CO2 humidified air.
(§7) On the first day of the experiment cells were harvested from exponential phase cultures by trypsination, counted and plated into 96 well flat-bottom micro titer plates depending on the cell line as listed below:
(§8) After a 24 h recovery to allow the cells to resume exponential growth, the test compounds were diluted immediately prior to use and transferred in 25 μl volume to the wells.
(§9) Following 2 days of continuous drug exposure 50 μl of freshly prepared XTT-PMS solution {2% 0.386 mg/ml PMS (N-Methyl Dibenzopyrazine Methylsulphate; Sigma, Cat. No. P9625) in PBS+98% 1 mg/ml XTT (Sodium 2,3-bis(2-methoxy-4-nitro-5-sulfophenyl)-5-[(phenylamino)carbonyl]-2H-Tetrazolium; Serva, Cat. No. 38450) in RPMI 1640 medium without phenol red} was added to the wells. To measure the proportion of living cells, the cells were incubated for 3 h with XTT-PMS reagent at 37° C., 5% CO2, humidified atmosphere allowing to form the formazan salt. The amount of soluble formazan salt produced by cellular reduction of XTT is quantified by measuring the absorbance at 490 nm using the Biomek® 2000 ELISA plate reader. %-inhibition (cytotoxicity) of each test compound was calculated in relation to untreated control cells. Inhibition curves were generated and IC50 values calculated by using GraphPad Prism.

Assay [2] deals with PC3 (human prostate carcinoma) cells. Briefly: XTT cytotoxicity assay, PC3 cells. The following applies: read-out: PC3 [IC50 (μM)]. The method, then: as §1, §2, §3, §4, §5, §6, §7, §8, §9
Assay [3] has as its system KB/HeLa (human cervix carcinoma) cells. Briefly: XTT cytotoxicity assay, KB/HeLa cells. The following applies: read-out: KB/HELA [IC50 (μM)]. As to the method:
as §1, §2, §3, §5, §6, §7, §8, §9
(Formazan colour is commonly taken as a measure of viable cells.)

Setting [4] is: Homo sapiens, XTT, 48 h exposure.
Setting [5] is: Homo sapiens, PC-3, XTT, 48 h exposure.
The mark [6] stands for this setting: Homo sapiens, HeLa, XTT, 48 h exposure.

Where two headings read alike, the source gives them in different places.

With `CC(C)CCCC(C)C1CCC2C3CCC4CC(OP(=O)([O-])OCC[N+](C)(C)C)CCC4(C)C3CCC12C` (stereo not drawn) [Compound 41], the IC50 in assay [1] (setting [4]), in assay [2] (setting [5]) and in assay [3] (setting [6]) was more than 100 µM in each case.
Take `CC(C)CCCC(C)C1CCC2C3CC=C4CC(OP(=O)([O-])OCC[N+](C)(C)C)CCC4(C)C3CCC12C` (stereo not drawn) [Compound 46]: the IC50 in assay [1] (setting [4]), in assay [2] (setting [5]) and in assay [3] (setting [6]) was more than 100 µM in each case.
Regarding `CC(C)CCCC(C)C1CCC2C3=CC=C4CC(OP(=O)([O-])OCC[N+](C)(C)C)CCC4(C)C3CCC21C` (stereo not drawn) [Compound 48], the IC50 in assay [1] (setting [4]), in assay [2] (setting [5]) and in assay [3] (setting [6]) was more than 100 µM throughout.
With `CCCCC/C=C\C/C=C\CCCCCCCCOP(=O)([O-])OCC[N+](C)(C)C` [Compound 55], the IC50 in assay [1] (setting [4]), in assay [2] (setting [5]) and in assay [3] (setting [6]) was more than 100 µM in each case.
Take `C[C@H](CCC(=O)O)[C@H]1CCC2[C@@H]3CC[C@@H]4C[C@H](OP(=O)([O-])OCC[N+](C)(C)C)CC[C@]4(C)[C@H]3CC[C@@]21C` (stereo partly drawn) [Compound 59]: the IC50 in assay [1] (setting [4]), in assay [2] (setting [5]) and in assay [3] (setting [6]) was more than 100 µM throughout.
In the case of `CCCCCCCCCCCCCCCCOP(=O)(O)OCCN1CCOCC1` [Compound 60], the IC50 in assay [1] (setting [4]), in assay [2] (setting [5]) and in assay [3] (setting [6]) was more than 100 µM in each case.
Take `CCCCCCCCCCCCCCCCOP(=O)(O)OCCN1CCCC1` [Compound 63]: the IC50 in assay [1] (setting [4]), in assay [2] (setting [5]) and in assay [3] (setting [6]) was more than 100 µM in each case.
Turning to `CCCCCCCCCCCCCCCCOP(=O)([O-])OC1C[N+]2(C)CCC1CC2` (stereo not drawn) [Compound 76], the IC50 came out at 68.8 µM in assay [1] (setting [4]), 25 µM in assay [2] (setting [5]) and 11.3 µM in assay [3] (setting [6]).
Taken in the same sequence, the figures for `CCCCCCCC/C=C\CCCCCCCCOP(=O)([O-])OCC[N+](C)(C)CC` [Compound 82] were 20.5 µM, 45.6 µM and 37.7 µM.
In the same order, the values of `CCCCCCCCCCCCCCCCCCCCOP(=O)([O-])OC1CCC[N+](C)(C)CC1` (stereo not drawn) [Compound 86] are more than 100 µM, more than 100 µM and 75.6 µM.
In the same order, the values of `CCCCCCCC/C=C\CCCCCCCCOP(=O)([O-])OCC[N+]1(C)CCCC1` [Compound 91] are more than 100 µM, 86.8 µM and more than 100 µM.
For `CCCCCCCC/C=C\CCCCCCCCOP(=O)([O-])OCC[N+]1(C)CCCCC1` [Compound 97], the IC50 in assay [1] (setting [4]) is 89.4 µM; in assay [2] (setting [5]), 49.4 µM; in assay [3] (setting [6]), more than 100 µM.
On to `CCCCCCCCCCOCCOCCOP(=O)([O-])OCC[N+](C)(C)C` [Compound 123], for which the IC50 in assay [1] (setting [4]) came to 76.6 µM; in assay [2] (setting [5]) it was 21.8 µM; in assay [3] (setting [6]), 39.1 µM.
Regarding `CCCCCCCC/C=C\CCCCCCCCCCCCOP(=O)([O-])OCC[N+]1(C)CCC(O)CC1` (stereo not drawn) [Compound 133], the IC50 in assay [1] (setting [4]) is more than 100 µM; in assay [2] (setting [5]) it was 81.6 µM; in assay [3] (setting [6]), more than 100 µM.
Regarding `CCCCCCCCC#CCCCCCCCCOP(=O)([O-])OCC[N+]1(C)CCCCC1` [Compound 145], the IC50 in assay [1] (setting [4]), in assay [2] (setting [5]) and in assay [3] (setting [6]) was more than 100 µM each time.
On to `CCCCCCCCCCCCCCCCCCOP(=O)([O-])OCc1cccc[n+]1C` [Compound 147], for which the IC50 in assay [1] (setting [4]), in assay [2] (setting [5]) and in assay [3] (setting [6]) was more than 100 µM throughout.
In the case of `CCCCCCCCCCCCCCCCCCOP(=O)([O-])OCC1CC[N+](C)(C)CC1` [Compound 152], the figures for the IC50 in assay [1] (setting [4]), in assay [2] (setting [5]) and in assay [3] (setting [6]) were more than 100 µM, 23.9 µM and 32.3 µM, respectively.
Taken in the same sequence, the figures for `CCCCCCCCCCCCCCCCOP(=O)([O-])OCC1CC[N+](C)(C)CC1` [Compound 153] were more than 100 µM, 39.8 µM and 38.2 µM.
In the same order, the values of `CCCCCCCCCCCCCCCCCCOP(=O)([O-])OCCN1CC[N+](C)(C)CC1` [Compound 154] are 77.4 µM, 18.2 µM and 12.6 µM.
Take `CCCCCCCC/C=C\CCCCCCCCCCCCOP(=O)([O-])OCC[As+](CC)(CC)CC` [Compound 159]: the IC50 in assay [1] (XTT, 48 h exposure) is 21 µM; in assay [2] (XTT, 48 h exposure) it was 37.7 µM; in assay [3] (XTT, 48 h exposure), more than 100 µM.
As to `CCCCCCCC/C=C\CCCCCCCCCCCCOP(=O)([O-])OCCC1=C(C)[N+](C)=CC1` [Compound 172], the results for the IC50 in assay [1] (setting [4]), in assay [2] (setting [5]) and in assay [3] (setting [6]) were 65.5 µM, 29.8 µM and more than 100 µM, respectively.
In the same order, the values of `CCCCCCC1CCC(CCOP(=O)([O-])OCC[N+]2(C)CCCCC2)CC1` (stereo not drawn) [Compound 180] are more than 100 µM, more than 100 µM and more than 100 µM.
In the same order, the values of `CCCCCCCC/C=C\CCCCCCCCCCCCOP(=O)([O-])OC1CCC[N+](C)(CCc2ccccc2)CC1` (stereo not drawn) [Compound 185] are more than 100 µM, 30.4 µM and more than 100 µM.
In the same order, the values of `CCCCCCCCCCCCCCCCOP(=O)([O-])OCC[n+]1cccc(C(=O)OCC)c1` [Compound 190] are more than 100 µM, 73.3 µM and 100 µM.
`CCCCCCCCCCCCCCCCOP(=O)([O-])OC1CC[N+](CC)(CC)CC1` [Compound 200]: the values for the IC50 in assay [1] (setting [4]), in assay [2] (setting [5]) and in assay [3] (setting [6]) were more than 100 µM, 34.5 µM and 66.4 µM, respectively.
In the same order, the values of `CCCCCCCC/C=C\CCCCCCCCCCCCOP(=O)([O-])OC1CC[N+](CC)(CC)CC1` [Compound 203] are more than 100 µM, 63.1 µM and more than 100 µM.
Taken in the same sequence, the figures for `CCC(C)CC(C)CC(C)CC(C)COP(=O)([O-])OCC[N+](C)(C)C` (stereo not drawn) [Compound 235] were more than 100 µM, more than 100 µM and more than 100 µM.
For `CCCCCCCC/C=C\CCCCCCCCOCCOCCOP(=O)([O-])OC1CC[N+](C)(C)CC1` [Compound 256], the IC50 in assay [1] (setting [4]) is more than 100 µM; in assay [2] (setting [5]), 82 µM; in assay [3] (setting [6]), more than 100 µM.
Take `CCC(C)CC(C)CC(C)CC(C)COP(=O)([O-])OC1CC[N+](C)(C)CC1` (stereo not drawn) [Compound 258]: the IC50 in assay [1] (setting [4]), in assay [2] (setting [5]) and in assay [3] (setting [6]) was more than 100 µM each time.
Regarding `C#CC[N+]1(C)CCC(OP(=O)([O-])OCCCCCCCCCCCCCCCC)CC1` (stereo not drawn) [Compound 262], the results for the IC50 in assay [1] (setting [4]), in assay [2] (setting [5]) and in assay [3] (setting [6]) were more than 100 µM, 31.2 µM and 10.1 µM, respectively.
Taken in the same sequence, the figures for `CCCCCCCC/C=C\CCCCCCCCCCCCOP(=O)([O-])OCC[N+](CC)(CC)CC` [Compound 275] were 44.4 µM, 69.2 µM and more than 100 µM.
For the molecule `CCCCCCCC/C=C\CCCCCCCC(=O)OCC(COP(=O)([O-])OCC[As+](C)(C)C)OC(=O)CCCCCCC/C=C\CCCCCCCC` (stereo not drawn) [Compound 311], the IC50 is more than 100 µM in assay [1] (Homo sapiens, 48 h); more than 100 µM in assay [2] (Homo sapiens, PC-3, 48 h); more than 100 µM in assay [3] (Homo sapiens, HeLa, 48 h).
